This is an account of results in publication doi:10.1101/2024.07.10.602890, “H105A peptide eye drops promote photoreceptor survival in murine and human models of retinal degeneration” (bioRxiv, 2024).

Ends that are not written are not given here.

In the test the target is T1, recombinant human PEDF-R[1–288] (Homo sapiens, UniProt Q96AD5).
T1 construct: SUMOstar (N); His tag (implied by HisTrap purification; part of the pE-SUMOstar vector) (N); TwinStrep (C); made in house; host or cells: Escherichia coli Rosetta(DE3), co-transformed with pGro7 (groES-groEL)
T1 sequence (Q96AD5 1-288): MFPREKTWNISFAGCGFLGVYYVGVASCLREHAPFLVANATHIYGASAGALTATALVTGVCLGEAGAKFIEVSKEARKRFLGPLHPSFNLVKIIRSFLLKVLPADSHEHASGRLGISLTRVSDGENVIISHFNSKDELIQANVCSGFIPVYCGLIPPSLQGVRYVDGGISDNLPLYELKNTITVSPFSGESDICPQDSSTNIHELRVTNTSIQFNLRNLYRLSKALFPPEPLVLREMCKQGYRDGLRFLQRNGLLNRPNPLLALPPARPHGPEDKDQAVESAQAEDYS
The experiment in a line: Phospholipase A2 (PLA2) activity assay of PEDF-R with peptides. The note with it: purified recombinant PEDF-R[1–288] 60 nM; peptides preincubated 30 min at room temperature; EnzChek PLA2 kit; six replicate reactions. The class given is biochemical. The text has this:
Fig. 1: Penetration and Bioavailability of PEDF Peptides 17-mer, H105A, and R99A Delivered via Eye Drops in Mouse Retinas (A) Peptide mapping and sequence. Tertiary structure of human PEDF highlighting the small peptide region with neurotrophic activity (17-mer) in blue (top). Primary structure of human PEDF showing the location of the 17-mer region (middle). Sequences of the 17-mer peptide and its variants, H105A and R99A (bottom). (B) In vivo detection of peptides. Fundus micrographs showing fluorescence from Alexa Fluor 488-labeled 17-mer, H105A, and R99A peptides in the eyes of C57Bl/6J mice at P21 days after eye drop administration of 5 μl of peptide at 1 mg/ml (left). […] Quantification of fluorescence intensity over time post-administration (right). […] (C) Quantification of peptide in retinas. […] The amount of peptide was quantified from the fluorescence in retinal extracts using standard curves (Fig. S6A). […] (D) Retinal cross-sections showing fluorescence distribution in the photoreceptor layer 1 hour after applying eye drops as in Panel B. Representative images for labeled 17-mer, H105A, and R99A peptides are shown, with magnified areas of 17-mer and H105A indicated by dotted rectangles. […] (F) Effects of 17-mer, H105A, and R99A peptides on the PLA2 activity of PEDF-R. Peptides were preincubated with recombinant human PEDF-R[1–288] for 30 min, and PLA2 activity was measured. […]

With QRTESIIHRALYYDLIS [17-mer], the “stimulation of PLA2 activity of PEDF-R” value was “capable of stimulating its PLA2 activity”.
Under QRTESIIARALYYDLIS [H105A] stands “capable of stimulating its PLA2 activity”.
